Reference: paper PMC5971566, “Population Pharmacokinetic Analyses for Rezafungin (CD101) Efficacy Using Phase 1 Data” (Antimicrobial Agents and Chemotherapy, 2018)
Numbered stars: 1 amine (or outer) side, 2 acyl side, 3 side chain; on linkers, the order of the positions; unused ones are H or OH. Bridge positions count the residues as written; N and C are the ends. Square brackets hold non-standard residues; d marks the D form. Peptide text beside a SMILES is read from it. * marks the point of attachment. Orn(4R-OH,5R-OCH2CH2NMe3+) = C[N+](C)(C)CCO[C@@H](N[*:3])[C@H](O)C[C@H](N[*:1])C(=O)[*:2]; pTerphenylCO(4''-OnC5H11) = CCCCCOc1ccc(-c2ccc(-c3ccc(C(=O)*)cc3)cc2)cc1; hTyr(3S-OH,4S-OH) = N[C@H](C(=O)O)[C@H](O)[C@@H](O)c1ccc(O)cc1; Pro(3S-OH,4S-Me) = C[C@H]1CN[C@H](C(=O)O)[C@H]1O; Hyp = O=C(O)[C@@H]1C[C@@H](O)CN1

Experiments:
[1] = cited from earlier work
Description: One of the unique features of rezafungin is its long half-life. […] This value far exceeds those reported for other echinocandins, which have terminal half-lives ranging from 9 to 52 h ([9][–][11]). […] Given rezafungin's long half-life, it is being evaluated ...

[2] = 400 mg the highest dose evaluated; cited from earlier work
Description: One of the unique features of rezafungin is its long half-life. […] This value far exceeds those reported for other echinocandins, which have terminal half-lives ranging from 9 to 52 h ([9][–][11]). […] Moreover, the model- ...

[3] = Population PK model of rezafungin plasma concentrations, pooled phase 1 single- and multiple-ascending-dose i.v. data; format: in vivo, humans (healthy subjects)
From the text: Data were pooled from two phase 1 studies (ClinicalTrials.gov registration no. NCT02516904 and NCT02551549) previously described by Sandison et al. ([8]). The protocols and informed consent were reviewed and approved by an appropriate institutional review board before subject enrollment. The studies were designed and monitored in compliance with the ethical principles of good clinical practice and in accordance with the Declaration of Helsinki.
The first study (ClinicalTrials.gov registration no. NCT2516904) evaluated single i.v. doses of rezafungin. A total of 32 subjects were enrolled and randomized evenly to one of four cohorts. Within each cohort, six subjects were administered rezafungin and two subjects were administered placebo as a single 60-min i.v. infusion. A single rezafungin dose of 50, 100, 200, and 400 mg was administered to cohorts 1, 2, 3, and 4, respectively. In all cohorts, blood samples for PK evaluations were collected predose and at 0.25, 0.5, 1, 1.5, 2, 4, 6, 8, 12, 24, 48, and 120 h after the start of infusion and on days 7, 14 (±1 day), and 21 (±1 day).
The second study (ClinicalTrials.gov registration no. NCT02551549) evaluated multiple i.v. doses of rezafungin. A total of 24 subjects were enrolled and randomized evenly to one of three cohorts. Within cohorts 1 and 2, six subjects were administered once-weekly i.v. doses of rezafungin at 100 and 200 mg, respectively, and two subjects were administered once-weekly i.v. doses of placebo, infused over 60 min on days 1 and 8. Within cohort 3, six subjects were administered once-weekly i.v. rezafungin doses of 400 mg and two subjects were administered once-weekly i.v. doses of placebo, infused over 60 min on days 1, 8, and 15. Blood samples were collected predose and at 0.5, 1, 1.5, 2, 4, 6, 8, 12, 24, 48, and 120 h after the start of each infusion and on days 7, 14 (±1 day), 21 (±1 day), and 35 (±1 day, cohort 3 only).
(§1) All blood samples were collected using tubes with K2-EDTA. Plasma was collected by centrifugation and stored at −70°C until analysis. Samples were analyzed using a 100-μl aliquot volume and a protein-precipitation extraction procedure followed by liquid chromatography/tandem mass spectrometry analysis. The rezafungin calibration range was 10.0 ng/ml to 10,000 ng/ml, using d9-CD101 as an internal standard. The range of the assay was extended 10-fold by dilution. An AB-Sciex API 4000 system was operated in the selected reaction-monitoring mode under optimized conditions for detection of rezafungin and d9-CD101 positive ions formed by electrospray ionization. Excellent interassay accuracy and precision, as measured by the use of quality control (QC) samples, were obtained during validation. Across the range of QC samples tested (lower limit of quantitation through the high-QC range), the interassay accuracy (percent bias from nominal) ranged from 0.3% to 4.3%, while the interassay precision (percent CV) ranged from 2.7% to 5%. Dilution QC samples performed well, with −1.5% bias and an interassay precision of 3.4%.
Candidate population PK models were fit to the pooled data using Monte Carlo parametric expectation maximization as implemented in the open-source software program S-ADAPT (version 1.5.6) ([22][–][24]). The model selection criteria used to discriminate between candidate PK models included (i) evaluation of individual and population mean parameter estimates and their precision (standard error of the mean [SEM]), (ii) graphical examination of standard goodness-of-fit plots and plots of the observed versus individual predicted concentrations, (iii) reductions in both residual variability and interindividual variability, and (iv) comparison of the objective function for nested models or the Akaike information criterion ([25]) for either nested or nonnested models.
Interindividual variability was estimated for each structural population PK model parameter, where possible, by using an exponential-error model. […]

[4] = Stability of rezafungin in plasma samples (bioanalytical validation, LC-MS/MS); format: in vitro ADME; details: K2-EDTA plasma samples
Description: as §1

C. albicans isolates = details: cited from earlier work
From the text: (§2) Historically, Candida albicans has been the predominant pathogen in candidemia and invasive candidiasis infections ([1]). Despite this, Candida glabrata is now emerging as a greater concern for clinicians due to a recent increase in prevalence among candidemia and invasive candidiasis infections and the pathogen's natural predisposition for expressing azole and echinocandin resistance mutations ([2], [3]). Accordingly, the incidence of infections due to C. glabrata not only has increased more than 4-fold over the past 20 years ([4]) but also has been accompanied by an increased prevalence of b ...

Candida glabrata = details: including azole- and echinocandin-resistant isolates; ref not given; cited from earlier work
From the text: as §2

C. glabrata isolates = details: including an echinocandin-resistant C. glabrata isolate; cited from earlier work
From the text: as §2

Candida albicans = details: including azole- and echinocandin-resistant isolates; ref not given; cited from earlier work
From the text: as §2

[5] = healthy subjects n = 42, i.v., four-compartment population PK model
[6] = weight power function centered on 75 kg, power fixed to 0.75
[7] = weight power function centered on 75 kg, power fixed to 1.0

SMILES: CCCCCOc1ccc(-c2ccc(-c3ccc(C(=O)N[C@H]4C[C@@H](O)[C@@H](OCC[N+](C)(C)C)NC(=O)[C@@H]5[C@@H](O)[C@@H](C)CN5C(=O)[C@H]([C@@H](C)O)NC(=O)[C@H]([C@H](O)[C@@H](O)c5ccc(O)cc5)NC(=O)[C@@H]5C[C@@H](O)CN5C(=O)[C@H]([C@@H](C)O)NC4=O)cc3)cc2)cc1 [Rezafungin] ({pTerphenylCO(4''-OnC5H11)}-[Orn(4R-OH,5R-OCH2CH2NMe3+)]T[Hyp][hTyr(3S-OH,4S-OH)]T[Pro(3S-OH,4S-Me)]; lactam 1-C)
- serious or severe adverse events ([1]; either phase 1 study): No serious or severe adverse events were observed
- patients with moderate treatment-related adverse events ([1]; of the 42 patients evaluated, phase 1 studies): 4
- safety signals ([1]; phase 1 studies): no safety signals were noted
- dose proportionality of maximum concentration, AUC and half-life [2]: dose proportional up to 400 mg
- rezafungin clearance, typical 50-kg subject ([3]; final population PK model, allometric scaling, 50 kg): 0.138 L/h
- rezafungin clearance, typical 100-kg subject ([3]; final population PK model, allometric scaling, 100 kg): 0.232 L/h
- Q2, distributional clearance, population mean final estimate [3, 5]: 24.4 L/h
- Q3, distributional clearance, population mean final estimate [3, 5]: 0.912 L/h
- Q4, distributional clearance, population mean final estimate [3, 5]: 0.0739 L/h
- V2, volume of distribution of the peripheral compartment, population mean final estimate [3, 5]: 12.6 L
- V3, volume of distribution of the peripheral compartment, population mean final estimate [3, 5]: 8.75 L
- V4, volume of distribution of the peripheral compartment, population mean final estimate [3, 5]: 27.9 L
- Vc, volume of distribution of the central compartment, population mean final estimate [3, 5]: 8.94 L
- clearance ([3]; human, iv, healthy subjects n = 42, i.v. 60-min infusion 50-400 mg single or once weekly, plasma, linear four-compartment model, S-ADAPT, read-out: CL, total clearance, population mean final estimate (converted)): 3.13 mL/min
- CL coefficient, population mean final estimate [3, 6]: 0.187 liter/h/75 kg
- Q2 coefficient, population mean final estimate [3, 6]: 24.3 liters/h/75 kg
- Q3 coefficient, population mean final estimate [3, 6]: 0.908 liter/h/75 kg
- Q4 coefficient, population mean final estimate [3, 6]: 0.0736 liter/h/75 kg
- V2 coefficient, population mean final estimate [3, 7]: 12.5 liters/75 kg
- V3 coefficient, population mean final estimate [3, 7]: 8.70 liters/75 kg
- V4 coefficient, population mean final estimate [3, 7]: 27.7 liters/75 kg
- Vc coefficient, population mean final estimate [3, 7]: 8.88 liters/75 kg
- freeze-thaw stability [4]: stable through four freeze-thaw cycles
- stability under frozen storage conditions ([4]; either at −20°C or at −70°C): at least 164 days
- stability at room temperature ([4]; room temperature): at least 24 h
- in vivo activity against a range of C. albicans isolates (C. albicans isolates): in vivo activity
- in vitro activity against C. glabrata (Candida glabrata): potent in vitro activity
- in vivo activity against a range of C. glabrata isolates (C. glabrata isolates): in vivo activity
- in vitro activity against C. albicans (Candida albicans): potent in vitro activity
